Laboratory results from publication PMC11940309, “Endocrine-Disrupting Activities of Flavones on Steroid Receptors: Structural Requirements and Synthesis of Novel Flavone with Improved Estrogenic Activity” (Biomedicines, 2025).
Read-outs that look alike come from different tables or passages of the source.

Legend:
[1] = biological target: T1, human AR (Homo sapiens, UniProt P10275); experiment: AR-mediated induction of PSA-luciferase reporter by R1881 in HeLa13 cells; format: cell-based; settings: for inhibition at 4 µM / inhibition at 1 µM: read-out: % Inhibition of AR-Mediated Gene Induction
T1 construct: expressed in transfected cells; host or cells: HeLa13 (HeLa 13)
T1 sequence (P10275 1-920): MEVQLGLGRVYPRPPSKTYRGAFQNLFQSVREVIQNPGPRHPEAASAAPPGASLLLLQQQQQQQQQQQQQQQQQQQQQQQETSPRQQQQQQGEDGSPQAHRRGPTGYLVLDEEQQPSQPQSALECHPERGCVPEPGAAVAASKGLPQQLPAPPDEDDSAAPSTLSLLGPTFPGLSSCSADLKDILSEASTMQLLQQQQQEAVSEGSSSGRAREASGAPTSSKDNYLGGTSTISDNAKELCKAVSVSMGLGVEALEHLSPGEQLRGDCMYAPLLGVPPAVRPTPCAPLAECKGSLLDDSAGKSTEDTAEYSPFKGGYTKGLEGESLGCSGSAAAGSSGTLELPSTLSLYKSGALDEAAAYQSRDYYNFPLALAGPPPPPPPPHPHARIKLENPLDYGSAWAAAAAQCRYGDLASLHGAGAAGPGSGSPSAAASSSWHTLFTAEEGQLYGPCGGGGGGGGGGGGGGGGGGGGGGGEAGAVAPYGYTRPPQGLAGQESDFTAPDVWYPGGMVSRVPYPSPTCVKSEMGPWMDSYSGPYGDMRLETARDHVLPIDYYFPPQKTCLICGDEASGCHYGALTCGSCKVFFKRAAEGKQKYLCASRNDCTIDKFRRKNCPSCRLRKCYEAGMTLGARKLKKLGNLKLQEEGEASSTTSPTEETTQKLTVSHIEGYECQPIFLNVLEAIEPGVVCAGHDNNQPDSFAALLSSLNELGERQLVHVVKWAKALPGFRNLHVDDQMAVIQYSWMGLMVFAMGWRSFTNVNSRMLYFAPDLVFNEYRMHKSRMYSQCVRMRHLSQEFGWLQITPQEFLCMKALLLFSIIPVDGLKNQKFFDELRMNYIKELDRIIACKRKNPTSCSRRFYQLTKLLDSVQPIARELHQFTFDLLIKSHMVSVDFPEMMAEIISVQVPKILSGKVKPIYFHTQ
Description: The engineered T47D breast cancer cell lines employed for the assessment of flavonoid activity on glucocorticoid receptor (GR) and progesterone receptor (PR) signaling permitted the facile quantitation transcription of both an endogenous gene and a stably integrated reporter gene. […] The T47D K5pLuc cell line responds to progestins via induction of a stably integrated cytokeratin 5-luciferase reporter gene. […] For assessment of the effect of the test compounds on androgen receptor (AR) signaling, we used the HeLa13 cell line engineered to stably express human AR and a PSA-luciferase reporter gene containing a 4× multimerized PSA upstream enhancer ARE1 linked to the E4 TATA box and luciferase gene.
Experiments testing the effect of flavonoid on androgen receptor-mediated transcription employed HeLa 13 cells maintained in MEM medium supplemented with 10% FBS, 0.5 mg/mL G418, 0.05 mg/mL Hygromycin B, […], and streptomycin (100 μg/mL). For reporter gene experiments, cells were replated at a 1:5 dilution in MEM medium with 5% charcoal-stripped FBS and the antibiotics mentioned above. The medium was changed the next day. After 48 h, the cells were washed with PBSE, detached with phenol red-free trypsin, pelleted, resuspended and plated in 96 well plates as above. Hormone and flavonoid treatments were performed as described above with the HeLa 13 medium and charcoal-stripped FBS. When treated with hormone, the synthetic androgen, R1881, was used at 1.0 nM. Hormone treatment was for 20 h at which time cells were harvested for assay of luciferase.
(§1) For all cell lines, cell harvesting and the luminescence assay for alkaline phosphatase and/or luciferase were performed as previously described in detail. Each condition was performed in quadruplicate. […] Percent inhibition is 100 minus the percent induction.

[2] = test system: estrogen receptor (ER); experiment: ER-mediated luciferase reporter induction in T47D KBluc cells; format: cell-based, human; settings: relative to 1nM estradiol
Method: Experiments testing the effect of flavonoids on estrogen receptor-mediated transcription employed T47D KBluc cells. These cells were maintained in RPMI medium with 10% FBS, penicillin (100 U/mL), and streptomycin (100 μg/mL). For reporter gene experiments, cells were detached as above and replated at 50% confluency in phenol red-free RPMI media with 10% charcoal-stripped FBS and antibiotics (day one). All subsequent steps used phenol red-free medium and trypsin. On day three, the medium was replaced with fresh medium. On day five, cells were washed with PBSE, detached, resuspended, diluted, and replated in the phenol red-free RPMI with charcoal-stripped serum (50,000 cells per well as above).
as §1

Structure (SMILES) | inhibition at 4 µM ([1]; 4 µM, R1881 1.0 nM) | inhibition at 1 µM ([1]; 1 µM, R1881 1.0 nM) | IC50 ([1]; R1881, read-out: IC50, AR antagonism) | % Inhibition of AR-Mediated Gene Induction ([1]; 1 µM, R1881 1.0 nM) | % Inhibition of AR-Mediated Gene Induction ([1]; 4 µM, R1881 1.0 nM) | % ER Induction ([2]; 1 µM) | % ER Induction ([2]; 4 µM) | inhibition at 1 µM [1] | inhibition at 4 µM [1]
O=c1cc(-c2ccc(O)cc2)oc2ccc(O)cc12 [6,4′-dihydroxyflavone] | 54% | 43% |  |  |  | 119% | 192% |  | 
COc1ccc([C@@H]2CC(=O)c3c(O)cc(O)cc3O2)cc1O [5,7,3′-triOH, 4′methoxyflavanone] |  |  |  |  |  | 10% | 6% | -28% | -30%
O=c1cc(-c2ccc(O)c(O)c2)oc2cccc(O)c12 [5,3′,4′-trihydroxyflavone] |  |  |  |  |  | 0% | 13% | 29% | 91%
O=c1cc(-c2ccc(O)cc2)oc2cc(O)ccc12 [7,4′-dihydroxyflavone] |  |  |  |  |  | 86% | 140% | -18% | -20%
O=c1cc(-c2ccc(O)c(O)c2)oc2cc(O)cc(O)c12 [5,7,3′,4′-tetrahydroxyflavone] | 67% | -20% |  |  |  | 3% | 80% |  | 
O=C1CC(c2ccc(O)c(O)c2)Oc2cc(O)cc(O)c21 (stereo not shown) [5,7,3′,4′-tetrahydroxyflavanone] |  |  |  |  |  | 0% | 20% | 13% | 24%
O=c1cc(-c2cc(O)c(O)c(O)c2)oc2cc(O)cc(O)c12 [5,7,3′4′,5′-pentahydroxyflavone] |  |  |  | −8% | 24% | 0% | −1% |  | 
O=c1cc(-c2ccc(O)c(O)c2)oc2ccccc12 [3′,4′-dihydroxyflavone] | 75% | 40% |  |  |  | 0% | 13% |  | 
O=c1cc(-c2ccccc2)oc2cc(O)cc(O)c12 [5,7-dihydroxyflavone] | 46% | -13% |  |  |  |  |  |  | 

Second part, led by results:

inhibition at 4 µM ([1]; 4 µM, R1881 1.0 nM) | inhibition at 1 µM ([1]; 1 µM, R1881 1.0 nM) | IC50 ([1]; R1881, read-out: IC50, AR antagonism) | % Inhibition of AR-Mediated Gene Induction ([1]; 1 µM, R1881 1.0 nM) | % Inhibition of AR-Mediated Gene Induction ([1]; 4 µM, R1881 1.0 nM) | Structure (SMILES) | % ER Induction ([2]; 1 µM) | % ER Induction ([2]; 4 µM) | inhibition at 1 µM [1] | inhibition at 4 µM [1]
24% |  |  |  |  | O=c1c(-c2ccc(O)cc2)coc2cc(O)ccc12 [7,4′-dihydroxyisoflavone] | 125% |  |  | 
55% | -12% |  |  |  | O=c1cc(-c2ccccc2)oc2ccccc12 [flavone] | 1% | 3% |  | 
22% | 55% |  |  |  | O=c1c(-c2ccc(O)cc2)coc2cc(O)cc(O)c12 [5,7,4′-trihydroxyisoflavone] | 125% | 180% |  | 
11% | -6% |  |  |  | O=c1cc(-c2ccc(O)c(O)c2)oc2cc(O)ccc12 [7,3′,4′-trihydroxyflavone] | 0% | 30% |  | 
9% | -17% |  |  |  | O=C1CC(c2ccc(O)cc2)Oc2cc(O)cc(O)c21 (stereo not shown) [5,7,4′-trihydroxyflavanone] | 48% | 93% |  | 
65% | 29% |  |  |  | O=c1cc(-c2ccc(O)cc2)oc2ccccc12 [4′-hydroxyflavone] | 12% | 130% |  | 
97% | 77% | ~500 nM |  |  | O=c1cc(-c2ccc(O)cc2)oc2cccc(O)c12 [5,4′-dihydroxyflavone] | 53% | 138% |  | 
